# Assay results as given in paper PMC10713593, “Staphylococcus aureus functional amyloids catalyze degradation of β-lactam antibiotics” (Nature Communications, 2023).
# Where no end group is shown, it is not given here.
# Key:
# [1] = biological target: PSMα3 fibrils (Staphylococcus aureus, UniProt A9JX07); test: LC-MS degradation of amoxicillin and penicillin G with PSMα3 fibrils or buffer; type: biochemical; conditions: for Degraded Penicillin G (PSMa3) (percentage of LC peaks, hydrolyzed product) / Penicillin G (PSMa3) (percentage of LC peaks, parent compound) / Degraded Penicillin G (percentage of LC peaks, hydrolyzed product) / Penicillin G (percentage of LC peaks, parent compound): Hepes 50 mM pH 7.4, penicillin G 40 µM, LC-MS; for Degraded Penicillin G (percentage of LC peaks, hydrolyzed product) / Penicillin G (percentage of LC peaks, parent compound): buffer control
# Sequence of PSMα3 fibrils (A9JX07 whole entry, looked up): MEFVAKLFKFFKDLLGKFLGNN
# Description: Amoxicillin or Penicillin solutions were dissolved in Hepes buffer (50 mM, pH 7.4) in concentration of 50 µM. PSMα3 solution in concentration of 1.54 mM was dissolved in DIW and Hepes buffer was added to the final concentration of 50 mM. The antibiotics’ solutions and preincubated PSMα3 solutions were mixed to final PSMα3 […] 180 µL organic solvent to stop the reaction (acetonitrile for Amoxicillin, methanol in the case of Penicillin). The samples were collected and injected sequentially into the LC-MS analysis.
# Waters ACQUITY UPLC I-Class PLUS System coupled with high-resolution Thermo Orbitrap Exploris 240 mass-spectrometer were used for analysis of Amoxicillin and Penicillin-G over time. 1 µL of each sample was injected into the reverse-phase Acquity UPLC BEH C18 1.7 µm, 2.1 × 50 mm column (Waters) and run under a gradient program (Table S2 for Amoxicillin, Table S3 for Penicillin-G). The samples were ionized using soft electrospray ionization in positive mode and detected in a full scan mode in range from 60 to 900 m/z with a resolution of 240,000 Full Width at Half Maximum. MS was tuned according to the manufacture recommendations. Relative abundance of the intact/degraded compounds was calculated by peak area of the extracted ion chromatogram: for Amoxicillin 366.1–366.12, and degraded-Amoxicillin 384.1–384.13 m/z, Penicillin-G 335.1–335.12, for degraded-Penicillin-G 353.1–353.12, for (Figs. S13 and S14, respectively).
# [2] = Nitrocefin hydrolysis kinetics (absorbance of degraded nitrocefin at 480 nm; initial rates V0, Michaelis-Menten fit); type: biochemical; conditions: peptide 170 µM; for nitrocefin substrate degradation after two hours: initial nitrocefin 107 µM (Fig. 4b)
# Description: Nitrocefin, a β-lactam widely used as a surrogate substrate of Penicillin in β-lactamase activity assay, was used as a substrate. NC degradation was monitored for 2 h. Nitrocefin stock solution was dissolved in acetonitrile (20 mM) and then diluted with Hepes buffer (50 mM, pH 7.4) to nitrocefin concentration of 360 µM (further dilutions to lower concentrations were made with the 360 µM NC stock). All nitrocefin samples were kept on ice in cold conditions and any further dilution or mixing was performed in ice-cold conditions to avoid self-hydrolysis background reaction. […] Immediately after mixing the samples, the plate was transferred to 20̊ °C pre-cooled plate reader (Multiskan GO, Thermo Scientific, Waltham, MA) and shaken slowly for 10 s. Then, the absorbance of degraded nitrocefin was measured for 2 h at interval of 20 s at λ = 480 nm. Initial production rates (V0) were calculated by slope of the initial linear range of degraded-nitrocefin production at the first 15 min. The reported results are and average of at least five separate measurements (the exact number of repeats, N, is reported next to the values). Each experiment also included blank samples of nitrocefin substrate diluted with buffer instead of PSMα. […] The initial rate calculations were performed while also subtracting the self-degradation of the substrate, to ensure that this product absorbance is a result of PSMα presence.
# The initial rates of degraded-nitrocefin production were calculated from the slopes of the first 15 min of measurement as reported above. The initial rates (V0) were fitted using non-linear regression applied with the solver function in excel, either to Michalis–Menten equation V=Vmax.[S]/(KM+S) Where Vmax. Stands for maximal reaction rate, KM stands for Michalis–Menten constant, [S] stands for the substrate molar concentration. Each initial rate value was presented as average ± SEM. The kinetic parameters were calculated by fitting the data to MM model using non-linear regression, and the confidence intervals for each parameter were calculated accordingly.
compound,measurement,setting,value
CC1(C)S[C@@H]2[C@H](NC(=O)Cc3ccccc3)C(=O)N2[C@H]1C(=O)O [Penicillin G],"Degraded Penicillin G (PSMa3) (percentage of LC peaks, hydrolyzed product)","[1]; PSMα3 fibrils 308 µM, 0h",14.1576%
same,"Penicillin G (PSMa3) (percentage of LC peaks, parent compound)","[1]; PSMα3 fibrils 308 µM, 0h",85.8424%
same,"Degraded Penicillin G (PSMa3) (percentage of LC peaks, hydrolyzed product)","[1]; PSMα3 fibrils 308 µM, 2h",11.4487%
same,"Penicillin G (PSMa3) (percentage of LC peaks, parent compound)","[1]; PSMα3 fibrils 308 µM, 2h",88.5513%
same,"Degraded Penicillin G (PSMa3) (percentage of LC peaks, hydrolyzed product)","[1]; PSMα3 fibrils 308 µM, 4h",13.5281%
same,"Penicillin G (PSMa3) (percentage of LC peaks, parent compound)","[1]; PSMα3 fibrils 308 µM, 4h",86.4719%
same,"Degraded Penicillin G (PSMa3) (percentage of LC peaks, hydrolyzed product)","[1]; PSMα3 fibrils 308 µM, 8h",13.7177%
same,"Penicillin G (PSMa3) (percentage of LC peaks, parent compound)","[1]; PSMα3 fibrils 308 µM, 8h",86.2823%
same,"Degraded Penicillin G (PSMa3) (percentage of LC peaks, hydrolyzed product)","[1]; PSMα3 fibrils 308 µM, 12h",18.21%
same,"Penicillin G (PSMa3) (percentage of LC peaks, parent compound)","[1]; PSMα3 fibrils 308 µM, 12h",81.79%
same,"Degraded Penicillin G (PSMa3) (percentage of LC peaks, hydrolyzed product)","[1]; PSMα3 fibrils 308 µM, 24h",37.9475%
same,"Penicillin G (PSMa3) (percentage of LC peaks, parent compound)","[1]; PSMα3 fibrils 308 µM, 24h",62.0525%
same,"Degraded Penicillin G (PSMa3) (percentage of LC peaks, hydrolyzed product)","[1]; PSMα3 fibrils 308 µM, 48h",86.3947%
same,"Penicillin G (PSMa3) (percentage of LC peaks, parent compound)","[1]; PSMα3 fibrils 308 µM, 48h",13.6053%
same,"Degraded Penicillin G (PSMa3) (percentage of LC peaks, hydrolyzed product)","[1]; PSMα3 fibrils 308 µM, 60h",96.085%
same,"Penicillin G (PSMa3) (percentage of LC peaks, parent compound)","[1]; PSMα3 fibrils 308 µM, 60h",3.915%
same,"Degraded Penicillin G (PSMa3) (percentage of LC peaks, hydrolyzed product)","[1]; PSMα3 fibrils 308 µM, 72h",99.5055%
same,"Penicillin G (PSMa3) (percentage of LC peaks, parent compound)","[1]; PSMα3 fibrils 308 µM, 72h",0.4945%
same,hydrolysis by PSMα3 fibrils versus spontaneous degradation,"[1]; antibiotic 40 µM, PSMα3 fibrils 308 µM, Hepes 50 mM pH 7.4, LC-MS (Fig. 6)",significantly higher extent compared to the spontaneous degradation
same,"Degraded Penicillin G (percentage of LC peaks, hydrolyzed product)",[1]; 0h,11.7847%
same,"Penicillin G (percentage of LC peaks, parent compound)",[1]; 0h,88.2153%
same,"Degraded Penicillin G (percentage of LC peaks, hydrolyzed product)",[1]; 2h,11.7612%
same,"Penicillin G (percentage of LC peaks, parent compound)",[1]; 2h,88.2388%
same,"Degraded Penicillin G (percentage of LC peaks, hydrolyzed product)",[1]; 4h,11.6984%
same,"Penicillin G (percentage of LC peaks, parent compound)",[1]; 4h,88.3016%
same,"Degraded Penicillin G (percentage of LC peaks, hydrolyzed product)",[1]; 8h,11.6907%
same,"Penicillin G (percentage of LC peaks, parent compound)",[1]; 8h,88.3093%
same,"Degraded Penicillin G (percentage of LC peaks, hydrolyzed product)",[1]; 12h,15.4738%
same,"Penicillin G (percentage of LC peaks, parent compound)",[1]; 12h,84.5262%
same,"Degraded Penicillin G (percentage of LC peaks, hydrolyzed product)",[1]; 24h,23.4015%
same,"Penicillin G (percentage of LC peaks, parent compound)",[1]; 24h,76.5985%
same,"Degraded Penicillin G (percentage of LC peaks, hydrolyzed product)",[1]; 48h,37.4339%
same,"Penicillin G (percentage of LC peaks, parent compound)",[1]; 48h,62.5661%
same,"Degraded Penicillin G (percentage of LC peaks, hydrolyzed product)",[1]; 60h,42.5642%
same,"Penicillin G (percentage of LC peaks, parent compound)",[1]; 60h,57.4358%
same,"Degraded Penicillin G (percentage of LC peaks, hydrolyzed product)",[1]; 72h,42.8604%
same,"Penicillin G (percentage of LC peaks, parent compound)",[1]; 72h,57.1396%
CSCC[C@H](N)C(=O)N[C@@H](CCC(=O)O)C(=O)N[C@@H](Cc1ccccc1)C(=O)N[C@H](C(=O)N[C@@H](C)C(=O)N[C@@H](CCCCN)C(=O)N[C@@H](CC(C)C)C(=O)N[C@@H](Cc1ccccc1)C(=O)N[C@@H](CCCCN)C(=O)N[C@@H](Cc1ccccc1)C(=O)N[C@@H](Cc1ccccc1)C(=O)N[C@@H](CCCCN)C(=O)N[C@@H](CC(=O)O)C(=O)N[C@@H](CC(C)C)C(=O)N[C@@H](CC(C)C)C(=O)NCC(=O)N[C@@H](C)C(=O)N[C@@H](Cc1ccccc1)C(=O)N[C@@H](CC(C)C)C(=O)NCC(=O)N[C@@H](CC(N)=O)C(=O)N[C@@H](CC(N)=O)C(=O)O)C(C)C [α3-K17A],nitrocefin substrate degradation after two hours,[2],minimal degradation
CSCC[C@H](NC(C)=O)C(=O)N[C@@H](CCC(=O)O)C(=O)N[C@@H](Cc1ccccc1)C(=O)N[C@H](C(=O)N[C@@H](C)C(=O)N[C@@H](CCCCN)C(=O)N[C@@H](CC(C)C)C(=O)N[C@@H](Cc1ccccc1)C(=O)N[C@@H](CCCCN)C(=O)N[C@@H](Cc1ccccc1)C(=O)N[C@@H](Cc1ccccc1)C(=O)N[C@@H](CCCCN)C(=O)N[C@@H](CC(=O)O)C(=O)N[C@@H](CC(C)C)C(=O)N[C@@H](CC(C)C)C(=O)NCC(=O)N[C@@H](CCCCN)C(=O)N[C@@H](Cc1ccccc1)C(=O)N[C@@H](CC(C)C)C(=O)NCC(=O)N[C@@H](CC(N)=O)C(=O)N[C@@H](CC(N)=O)C(=O)O)C(C)C [α3-N.Ac.],nitrocefin substrate degradation after two hours,[2],minimal degradation
MEFVAALFKFFKDLLGKFLGNN [α3-K6A],nitrocefin substrate degradation after two hours,[2],minimal degradation
MEFVAKLFAFFKDLLGKFLGNN [α3-K9A],nitrocefin substrate degradation after two hours,[2],minimal degradation
MEFVAKLFKFFADLLGKFLGNN [α3-K12A],nitrocefin substrate degradation after two hours,[2],70%
MEFVAKLFKPFKDLLGKFLGNN [α3-F10P],initial rate of nitrocefin degradation reaction (V0),"[2]; initial nitrocefin 107 µM, Hepes 50 mM pH 7.4, 20 °C, first 15 min (Fig. 3f)",lower than 15 µM/h
